Broadly, the IC50 is the point on the concentration scale where inhibition reaches its midpoint.

The target in this assay is T1, α4β1 integrin (Homo sapiens, UniProt P05556+P13612).
T1 construct: a cell line Jurkat, which is known to express α4β1 integrin; endogenous in cells; host or cells: Jurkat (human T cell line)
T1 sequence (P13612 34-1032): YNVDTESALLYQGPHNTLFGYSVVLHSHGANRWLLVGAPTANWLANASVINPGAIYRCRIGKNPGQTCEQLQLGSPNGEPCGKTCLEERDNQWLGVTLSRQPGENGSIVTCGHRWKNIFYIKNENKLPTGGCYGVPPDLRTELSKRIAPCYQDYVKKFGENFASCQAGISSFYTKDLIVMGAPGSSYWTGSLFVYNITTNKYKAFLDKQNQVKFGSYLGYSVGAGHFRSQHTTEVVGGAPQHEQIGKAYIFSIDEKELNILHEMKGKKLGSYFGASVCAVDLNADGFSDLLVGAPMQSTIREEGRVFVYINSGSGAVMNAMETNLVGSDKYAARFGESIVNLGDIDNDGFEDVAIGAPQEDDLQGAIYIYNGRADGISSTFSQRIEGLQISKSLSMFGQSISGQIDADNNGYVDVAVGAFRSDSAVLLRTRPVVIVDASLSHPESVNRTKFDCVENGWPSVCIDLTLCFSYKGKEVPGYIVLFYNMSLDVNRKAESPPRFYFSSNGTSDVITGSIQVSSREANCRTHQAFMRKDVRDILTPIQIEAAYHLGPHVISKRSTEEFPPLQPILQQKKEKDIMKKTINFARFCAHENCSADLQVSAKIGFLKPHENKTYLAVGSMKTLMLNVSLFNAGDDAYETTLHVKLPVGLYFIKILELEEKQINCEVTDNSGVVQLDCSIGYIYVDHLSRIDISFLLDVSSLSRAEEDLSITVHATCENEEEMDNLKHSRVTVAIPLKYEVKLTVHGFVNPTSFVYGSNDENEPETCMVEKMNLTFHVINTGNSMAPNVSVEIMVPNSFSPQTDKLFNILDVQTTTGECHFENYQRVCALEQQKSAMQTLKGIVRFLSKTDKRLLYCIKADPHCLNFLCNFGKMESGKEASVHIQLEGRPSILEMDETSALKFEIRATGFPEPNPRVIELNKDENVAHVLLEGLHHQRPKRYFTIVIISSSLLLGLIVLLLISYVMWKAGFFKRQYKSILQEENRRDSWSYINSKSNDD
T1 sequence (P05556 21-798): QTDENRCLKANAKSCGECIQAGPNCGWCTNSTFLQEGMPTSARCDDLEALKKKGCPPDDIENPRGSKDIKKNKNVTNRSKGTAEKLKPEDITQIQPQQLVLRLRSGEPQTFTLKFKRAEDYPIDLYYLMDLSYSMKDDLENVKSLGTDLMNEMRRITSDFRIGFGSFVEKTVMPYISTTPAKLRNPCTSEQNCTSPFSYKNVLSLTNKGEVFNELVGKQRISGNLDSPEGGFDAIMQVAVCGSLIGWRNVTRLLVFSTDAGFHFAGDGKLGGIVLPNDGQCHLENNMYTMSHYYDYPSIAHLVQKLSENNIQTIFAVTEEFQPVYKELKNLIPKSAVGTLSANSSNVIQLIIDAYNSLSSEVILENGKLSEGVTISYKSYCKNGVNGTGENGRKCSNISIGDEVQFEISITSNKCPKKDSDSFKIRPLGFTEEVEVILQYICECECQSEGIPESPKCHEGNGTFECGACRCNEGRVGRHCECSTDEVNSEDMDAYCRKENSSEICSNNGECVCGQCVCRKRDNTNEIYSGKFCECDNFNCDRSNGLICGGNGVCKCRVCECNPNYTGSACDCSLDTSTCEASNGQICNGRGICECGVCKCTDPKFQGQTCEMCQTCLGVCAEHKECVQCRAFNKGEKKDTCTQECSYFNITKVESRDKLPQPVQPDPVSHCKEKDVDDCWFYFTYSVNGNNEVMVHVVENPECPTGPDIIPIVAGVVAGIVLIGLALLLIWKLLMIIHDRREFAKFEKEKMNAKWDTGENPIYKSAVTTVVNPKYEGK
Nature of the assay: VCAM-1/α4β1 integrin binding inhibitory activity evaluation test (Jurkat cells binding to VCAM-1/Fc). It is filed as cell-based. The note with it: recombinant human VCAM-1/Fc. Here is the method: (1) VCAM-1/α4β1 Integrin Binding Inhibitory Activity Evaluation Test
Each test substance was measured in terms of an ability to inhibit the VCAM-1 binding of a human T cell line, namely, a cell line Jurkat, which is known to express α4β1 integrin.
A solution of recombinant human VCAM-1/Fc (R&D Systems, Inc.) (1 μg/mL) diluted with a buffer A (carbonate buffer, pH 9.6) was placed in an amount of 50 μL/well in a 96-well microtiter plate, followed by incubation at 4° C. overnight. After the plate was washed with PBS once, 150 μL/well of Block Ace (Snow Brand Milk Products Co., Ltd.) was added, followed by incubation at room temperature for 2 hours. After removal, the plate was washed with PBS once.
Then, 100 μL of the Jurkat cells (2×10^6 cells/mL) and 100 μL of the test substance at each of various concentrations diluted with a binding buffer (DMEM containing 40 mM HEPES, 0.2% BSA, and 4 mM MnCl2) were added to the plate coated with the VCAM-1/Fc (5×10^5 cells/well), followed by incubation at 30° C. for 15 to 60 minutes. After the cells were bound to the wells, the plate was washed with PBS to remove unbound cells. A buffer C (PBS containing 1.5% Triton X-100) was added in an amount 50 μL/well to the plate to lyse the bound Jurkat cells. After 30 μL of a substrate buffer (Promega, CytoTox 96 Non-Radioactive Cytotoxicity Assay) was added to 30 μL of the cell lysate, a reaction was allowed to proceed at room temperature in the dark for 30 minutes. After 30 μL of a stop solution (Promega, CytoTox 96 Non-Radioactive Cytotoxicity Assay) was added to each, and then an absorbance at 490 nm was measured using a plate reader. The absorbance obtained here represents a detection result of an activity of lactate dehydrogenase (LDH) eluted in the supernatant of each well, that is, the absorbance is proportional to the number of Jurkat cells bound to the VCAM-1 and thus remaining on the plate. The test was performed in duplicate. Provided that the absorbance of a well containing no test substance was 100%, a cell binding rate with the test substance at each of the various concentrations was figured out, and a concentration IC50 which brought about 50% binding inhibition was calculated.
`Cc1cn(C)c(=O)n(-c2ccc(C[C@H](NC(=O)c3cc(F)c(NS(=O)(=O)c4ccc(NC(=O)C5CCCC5)cc4)cc3F)C(=O)O)cn2)c1=O` [Compound A65]: the IC50 was determined as 21 µM.

For `Cc1c(C)n(C)c(=O)n(-c2ccc(C[C@H](NC(=O)c3cc(F)c(NS(=O)(=O)c4ccc(NC(=O)C(C)(C)C)cc4)cc3F)C(=O)O)cc2)c1=O` [Compound A8], the IC50 was 1.6 µM.

For the molecule `Cc1cc(=O)n(-c2ccc(C[C@H](NC(=O)c3cc(F)c(NS(=O)(=O)c4ccc(NC(=O)C(C)(C)C)cc4)cc3F)C(=O)O)cn2)c(=O)n1C` [Compound A45], the IC50 is 10 µM.

For the molecule `CN1C(=O)N(c2ccc(S(=O)(=O)Nc3cc(F)c(C(=O)N[C@@H](Cc4ccc(-n5c(=O)c6ccncc6n(C)c5=O)nc4)C(=O)O)cc3F)cc2)C(=O)C1(C)C` [Compound A38], the IC50 was 4 µM.

As to `Cc1cc(=O)n(-c2ccc(C[C@H](NC(=O)c3cc(F)c(NS(=O)(=O)c4ccc(NC(=O)C(C)(C)C)cc4)cc3F)C(=O)O)nc2)c(=O)n1C` [Compound A72], the 50% inhibitory concentration (IC50) is 9.3 µM.

`CCC(CC)C(=O)Nc1ccc(S(=O)(=O)Nc2cc(F)c(C(=O)N[C@@H](Cc3ccc(-n4c(=O)ccn(C)c4=O)nc3)C(=O)O)cc2F)cc1` [Compound A61]: the half-maximal inhibitory concentration (IC50) was over 31.2 µM.

In the case of `Cc1c(C)n(C)c(=O)n(-c2ccc(C[C@H](NC(=O)c3cc(F)c(NS(=O)(=O)c4ccc(-n5ccc(C6CCOCC6)cc5=O)cc4)cc3F)C(=O)O)cc2)c1=O` [Compound A34], the IC50 worked out at 3.6 µM.

As for `Cc1cn(C)c(=O)n(-c2ccc(C[C@H](NC(=O)c3cc(F)c(NS(=O)(=O)c4ccc(NC(=O)C#CC(C)(C)C)cc4)cc3F)C(=O)O)cn2)c1=O` [Compound A68], the IC50 was determined as 2.3 µM.

Turning to `CC(=O)Nc1ccc(S(=O)(=O)Nc2cc(F)c(C(=O)N[C@@H](Cc3ccc(-n4c(=O)c5ccncc5n(C)c4=O)cc3)C(=O)O)cc2F)cc1` [Compound A2], the IC50 came out at 1.1 µM.

Turning to `CN1CCc2c(n(C)c(=O)n(-c3ccc(C[C@H](NC(=O)c4cc(F)c(NS(=O)(=O)c5ccc(NC(=O)C(C)(C)C)cc5)cc4F)C(=O)O)cc3)c2=O)C1` [Compound A41], the half-maximal inhibitory concentration (IC50) stood at 0.48 µM.

Turning to `Cn1c2c(c(=O)n(-c3ccc(C[C@H](NC(=O)c4cc(F)c(NS(=O)(=O)c5ccc(NC(=O)C(C)(C)C)cc5)cc4F)C(=O)O)cn3)c1=O)CCOC2` [Compound A40], the IC50 stood at 2.3 µM.

For the molecule `Cc1cn(C)c(=O)n(-c2ccc(C[C@H](NC(=O)c3cc(F)c(NS(=O)(=O)c4ccc5c(NC(=O)C(C)(C)C)c[nH]c5c4)cc3F)C(=O)O)cn2)c1=O` [Compound A74], the IC50 was 7.4 µM.

Turning to `Cc1c(C)n(C)c(=O)n(-c2ccc(C[C@H](NC(=O)c3cc(F)c(NS(=O)(=O)c4ccc(N(C)C(=O)C(C)(C)C)cc4)cc3F)C(=O)O)cc2)c1=O` [Compound A35], the IC50 was found to be 3.8 µM.

On to `Cn1c(=O)n(-c2ccc(C[C@H](NC(=O)c3cc(F)c(NS(=O)(=O)c4ccc(NC(=O)C(C)(C)C)cn4)cc3F)C(=O)O)cn2)c(=O)c2ccncc21` [Compound A31], for which the IC50 worked out at 1.9 µM.

On to `CN1CCC(=O)N(c2ccc(C[C@H](NC(=O)c3cc(F)c(NS(=O)(=O)c4ccc(NC(=O)C(C)(C)C)cc4)cc3F)C(=O)O)cn2)C1=O` [Compound A75, (2S)-2-[2,5-difluoro-4-[(4-pivalamidophenyl)sulfonamide]benzamido]-3-[6-(3-methyl-2,6-dioxotetrahydropyrimidin-1(2H)-yl)pyridin-3-yl]propanoic acid], for which the IC50 worked out at 32 µM.

`Cn1ccc(=O)n(-c2ccc(C[C@H](NC(=O)c3cc(F)c(NS(=O)(=O)c4ccc(NC(=O)C5CCCC5)cc4)cc3F)C(=O)O)cn2)c1=O` [Compound A64]: the concentration for half-maximal inhibition (IC50) was over 31.2 µM.

With `Cc1cc(=O)n(-c2ccc(C[C@H](NC(=O)c3cc(F)c(NS(=O)(=O)c4ccc(NC(=O)C(C)(C)C)cc4)cc3F)C(=O)O)cc2)c(=O)n1C` [Compound A46], the IC50 was determined as 1.8 µM.

Consider `Cn1c(=O)n(-c2ccc(C[C@H](NC(=O)c3cc(F)c(NS(=O)(=O)c4ccc(NC(=O)C(C)(C)CO)cc4)cc3F)C(=O)O)cc2)c(=O)c2ccncc21` [Compound A18], for which the concentration for half-maximal inhibition (IC50) was found to be 0.72 µM.

For `Cc1c(CO)c(=O)n(-c2ccc(C[C@H](NC(=O)c3cc(F)c(NS(=O)(=O)c4ccc(NC(=O)C(C)(C)C)cc4)cc3F)C(=O)O)cc2)c(=O)n1C` [Compound A51], the IC50 turned out to be 5.5 µM.

The values above are taken from patent publication US10562898B2, “Substituted benzenesulfonamides as inhibitors of alpha-4 beta-7 integrin activity” (EA PHARMA CO., LTD., priority 2016, dated 2020).
